According to US10947188B2, “Small molecule ferroptosis inducers” (THE TRUSTEES OF COLUMBIA UNIVERSITY IN THE CITY OF NEW YORK, priority 2016, dated 2021):

Tests used:
BJeLR = test: Modulatory profiling: Alamar Blue viability, lethal compound cotreated with death modulator (EC50, AUC); format: cell-based, human; design: AUC, modulator BJ.Gd3+ / AUC, modulator BJ.LNAME / AUC, modulator BJ.Lmin / AUC, modulator BJ.3MA / AUC, modulator BJ.ALLN / AUC, modulator BJ.Boc D / AUC, modulator BJ.CHX / AUC, modulator BJ.Co2+ / AUC, modulator BJ.Nec-1 / AUC, modulator BJ.Pepstatin / AUC, modulator BJ.TLCK / AUC, modulator BJ.atoc / AUC, modulator BJ.trolox / AUC, modulator BJ.zVAD: unit not given beside the values; conditions: BJeLR cells, modulatory profile value (AUC); for AUC, modulator BJ.3MA: lethal compound cotreated with modulator 3MA; for AUC, modulator BJ.ALLN: lethal compound cotreated with modulator ALLN; for AUC, modulator BJ.Boc D: lethal compound cotreated with modulator Boc D; for AUC, modulator BJ.CHX: lethal compound cotreated with modulator CHX; for AUC, modulator BJ.Co2+: lethal compound cotreated with modulator Co2+; for AUC, modulator BJ.DPQ: lethal compound cotreated with modulator DPQ; for AUC, modulator BJ.Gd3+: lethal compound cotreated with modulator Gd3+; for AUC, modulator BJ.LNAME: lethal compound cotreated with modulator LNAME; for AUC, modulator BJ.Lmin/NAD+: lethal compound cotreated with modulator Lmin/NAD+; for AUC, modulator BJ.Lmin: lethal compound cotreated with modulator Lmin; for AUC, modulator BJ.NAD+: lethal compound cotreated with modulator NAD+; for AUC, modulator BJ.NMMA: lethal compound cotreated with modulator NMMA; for AUC, modulator BJ.Nec-1: lethal compound cotreated with modulator Nec-1; for AUC, modulator BJ.Pepstatin: lethal compound cotreated with modulator Pepstatin; for AUC, modulator BJ.TLCK: lethal compound cotreated with modulator TLCK; on AUC, modulator BJ.3MA: reference of the scale not given here; on AUC, modulator BJ.ALLN: reference of the scale not given here; on AUC, modulator BJ.Boc D: reference of the scale not given here; on AUC, modulator BJ.CHX: reference of the scale not given here; on AUC, modulator BJ.Co2+: reference of the scale not given here; on AUC, modulator BJ.DPQ: reference of the scale not given here; on AUC, modulator BJ.Gd3+: reference of the scale not given here; on AUC, modulator BJ.LNAME: reference of the scale not given here; on AUC, modulator BJ.NAD+: reference of the scale not given here; on AUC, modulator BJ.NMMA: reference of the scale not given here; on AUC, modulator BJ.Nec-1: reference of the scale not given here; on AUC, modulator BJ.Pepstatin: reference of the scale not given here; on AUC, modulator BJ.TLCK: reference of the scale not given here
HT-1080 = test: as above; format: cell-based; design: AUC, modulator HT.3MA / AUC, modulator HT.ALLN / AUC HT.ATA / AUC HT.ActD / AUC HT.BHA / AUC HT.BHT / AUC HT.BocD / AUC HT.CHX / AUC HT.Co2+ / AUC HT.DPQ / AUC HT.EGTA / AUC HT.Lmim / AUC HT.NAD+ / AUC HT.Nec-1 / AUC HT.SP600125 / AUC HT.TLCK / AUC HT.U0126: unit not given beside the values; conditions: for AUC HT.ATA: HT-1080, modulator ATA; for AUC HT.ActD: HT-1080, modulator ActD; for AUC HT.BHA: HT-1080, modulator BHA; for AUC HT.BHT: HT-1080, modulator BHT; for AUC HT.BocD: HT-1080, modulator BocD; for AUC HT.CHX: HT-1080, modulator CHX; for AUC HT.Co2+: HT-1080, modulator Co2+; for AUC HT.CspA: HT-1080, modulator CspA; for AUC HT.DPQ: HT-1080, modulator DPQ; for AUC HT.EGTA: HT-1080, modulator EGTA; for AUC HT.Gd3+: HT-1080, modulator Gd3+; for AUC HT.LNAME: HT-1080, modulator LNAME; for AUC HT.Lmim: HT-1080, modulator Lmim; for AUC HT.NAD+: HT-1080, modulator NAD+; for AUC HT.NMMA: HT-1080, modulator NMMA; for HT.atoc (AUC) / HT.bCarotene (AUC) / HT.deferox (AUC) / HT.digoxin (AUC) / HT.trolox (AUC) / HT.zVAD (AUC): HT-1080; for HT.atoc (AUC): modulator atoc; for HT.bCarotene (AUC): modulator bCarotene; for HT.deferox (AUC): modulator deferox; for HT.digoxin (AUC): modulator digoxin; for HT.trolox (AUC): modulator trolox; for HT.zVAD (AUC): modulator zVAD; on AUC HT.BHA: reference of the scale not given here; on AUC HT.EGTA: reference of the scale not given here

Cc1cc(C)c2c(=O)n(CC(=O)NCCCN3CCN(c4ccccc4F)CC3)sc2n1 [CIL50]
AUC, modulator BJ.3MA (BJeLR): −0.001613
AUC, modulator BJ.ALLN (BJeLR): −0.008924
AUC, modulator BJ.Boc D (BJeLR): 0.03113
AUC, modulator BJ.CHX (BJeLR): 0.1415
AUC, modulator BJ.Co2+ (BJeLR): −0.0178
AUC, modulator BJ.DPQ (BJeLR): −0.03869
AUC, modulator BJ.Gd3+ (BJeLR): −0.02113
AUC, modulator BJ.LNAME (BJeLR): 0.03227
AUC, modulator BJ.Lmin/NAD+ (BJeLR): 0.01676
AUC, modulator BJ.Lmin (BJeLR): 0.03123
AUC, modulator BJ.NAD+ (BJeLR): −0.08482
AUC, modulator BJ.NMMA (BJeLR): −0.004554
AUC, modulator BJ.Nec-1 (BJeLR): −0.05683
AUC, modulator BJ.Pepstatin (BJeLR): 0.003838
AUC, modulator BJ.TLCK (BJeLR): −0.05225
AUC HT.ATA (HT-1080): 0.06518
AUC HT.ActD (HT-1080): −0.00775
AUC HT.BHA (HT-1080): 0.006655
AUC HT.BHT (HT-1080): −0.06029
AUC HT.BocD (HT-1080): 0.004017
AUC HT.CHX (HT-1080): −0.04825
AUC HT.Co2+ (HT-1080): −0.08688
AUC HT.CspA (HT-1080): −0.01271
AUC HT.DPQ (HT-1080): −0.01588
AUC HT.EGTA (HT-1080): −0.02244
AUC HT.Gd3+ (HT-1080): −0.03877
AUC HT.LNAME (HT-1080): 0.01806
AUC HT.Lmim (HT-1080): −0.00536
AUC HT.NAD+ (HT-1080): 0.009799
AUC HT.NMMA (HT-1080): 0.004196
HT.atoc (AUC) (HT-1080): 0.06547
HT.bCarotene (AUC) (HT-1080): 0.01961
HT.deferox (AUC) (HT-1080): −0.04084
HT.digoxin (AUC) (HT-1080): 0.02124
HT.trolox (AUC) (HT-1080): −0.01565
HT.zVAD (AUC) (HT-1080): 0.02907

CC(C)C1CC(CCNCc2ccc3c(c2)OCO3)(c2ccccc2)CCO1 (stereo not drawn) [CIL51]
AUC, modulator BJ.3MA (BJeLR): 0.05908
AUC, modulator BJ.ALLN (BJeLR): −0.2032
AUC, modulator BJ.Boc D (BJeLR): −0.0008828
AUC, modulator BJ.CHX (BJeLR): 0.1696
AUC, modulator BJ.Co2+ (BJeLR): 0.06399
AUC, modulator BJ.DPQ (BJeLR): 0.04077
AUC, modulator BJ.Gd3+ (BJeLR): 0.03263
AUC, modulator BJ.LNAME (BJeLR): −0.04145
AUC, modulator BJ.Lmin/NAD+ (BJeLR): 0.03468
AUC, modulator BJ.Lmin (BJeLR): −0.07413
AUC, modulator BJ.NAD+ (BJeLR): −0.01737
AUC, modulator BJ.NMMA (BJeLR): 0.003016
AUC, modulator BJ.Nec-1 (BJeLR): 0.03451
AUC, modulator BJ.Pepstatin (BJeLR): −0.06742
AUC, modulator BJ.TLCK (BJeLR): −0.04421
AUC HT.ATA (HT-1080): 0.003579
AUC HT.ActD (HT-1080): 0.02697
AUC HT.BHA (HT-1080): −0.07965
AUC HT.BHT (HT-1080): −0.08488
AUC HT.BocD (HT-1080): −0.01458
AUC HT.CHX (HT-1080): 0.08663
AUC HT.Co2+ (HT-1080): 0.03908
AUC HT.CspA (HT-1080): 0.00675
AUC HT.DPQ (HT-1080): 0.0109
AUC HT.EGTA (HT-1080): 0.04897
AUC HT.Gd3+ (HT-1080): 0.003288
AUC HT.LNAME (HT-1080): 0.01091
AUC HT.Lmim (HT-1080): 0.01293
AUC HT.NAD+ (HT-1080): 0.04394
AUC HT.NMMA (HT-1080): 0.01562
HT.atoc (AUC) (HT-1080): 0.05135
HT.bCarotene (AUC) (HT-1080): 0.03796
HT.deferox (AUC) (HT-1080): 0.004062
HT.digoxin (AUC) (HT-1080): −0.03821
HT.trolox (AUC) (HT-1080): −0.01257
HT.zVAD (AUC) (HT-1080): 0.007799

CN(C)CCNC(=O)c1cc2c(s1)-c1ccc(Cl)cc1SC2 [CIL55]
AUC, modulator BJ.3MA (BJeLR): 0.06354
AUC, modulator BJ.ALLN (BJeLR): −0.04685
AUC, modulator BJ.Boc D (BJeLR): −0.01499
AUC, modulator BJ.CHX (BJeLR): 0.0373
AUC, modulator BJ.Co2+ (BJeLR): 0.03522
AUC, modulator BJ.DPQ (BJeLR): 0.01735
AUC, modulator BJ.Gd3+ (BJeLR): 0.003555
AUC, modulator BJ.LNAME (BJeLR): −0.02008
AUC, modulator BJ.Lmin/NAD+ (BJeLR): 0.1924
AUC, modulator BJ.Lmin (BJeLR): 0.08143
AUC, modulator BJ.NAD+ (BJeLR): 0.02772
AUC, modulator BJ.NMMA (BJeLR): −0.002759
AUC, modulator BJ.Nec-1 (BJeLR): 0.09849
AUC, modulator BJ.Pepstatin (BJeLR): 0.02873
AUC, modulator BJ.TLCK (BJeLR): 0.07378
AUC HT.ATA (HT-1080): 0.05195
AUC HT.ActD (HT-1080): −0.0079
AUC HT.BHA (HT-1080): 0.09593
AUC HT.BHT (HT-1080): 0.04919
AUC HT.BocD (HT-1080): 0.01568
AUC HT.CHX (HT-1080): −0.01039
AUC HT.Co2+ (HT-1080): 0.1152
AUC HT.CspA (HT-1080): −0.007883
AUC HT.DPQ (HT-1080): 0.01405
AUC HT.EGTA (HT-1080): 0.04877
AUC HT.Gd3+ (HT-1080): −0.01479
AUC HT.LNAME (HT-1080): 0.007171
AUC HT.Lmim (HT-1080): 0.07005
AUC HT.NAD+ (HT-1080): 0.03996
AUC HT.NMMA (HT-1080): 0.004761
HT.atoc (AUC) (HT-1080): 0.2074
HT.bCarotene (AUC) (HT-1080): 0.001297
HT.deferox (AUC) (HT-1080): 0.1108
HT.digoxin (AUC) (HT-1080): −0.0491
HT.trolox (AUC) (HT-1080): 0.1469
HT.zVAD (AUC) (HT-1080): 0.0266

O=C(Oc1ccc(Cl)c2cccnc12)c1ccco1 [CIL58]
AUC, modulator BJ.3MA (BJeLR): 0.03403
AUC, modulator BJ.ALLN (BJeLR): 0.01846
AUC, modulator BJ.Boc D (BJeLR): −0.007995
AUC, modulator BJ.CHX (BJeLR): −0.04911
AUC, modulator BJ.Co2+ (BJeLR): 0.2386
AUC, modulator BJ.DPQ (BJeLR): 0.009922
AUC, modulator BJ.Gd3+ (BJeLR): 0.02131
AUC, modulator BJ.LNAME (BJeLR): −0.02811
AUC, modulator BJ.Lmin/NAD+ (BJeLR): 0.02713
AUC, modulator BJ.Lmin (BJeLR): −0.009172
AUC, modulator BJ.NAD+ (BJeLR): 0.02238
AUC, modulator BJ.NMMA (BJeLR): −0.05299
AUC, modulator BJ.Nec-1 (BJeLR): 0.0983
AUC, modulator BJ.Pepstatin (BJeLR): 0.07532
AUC, modulator BJ.TLCK (BJeLR): 0.1505
AUC HT.ATA (HT-1080): 0.05141
AUC HT.ActD (HT-1080): 0.02044
AUC HT.BHA (HT-1080): −0.03989
AUC HT.BHT (HT-1080): −0.1355
AUC HT.BocD (HT-1080): −0.02082
AUC HT.CHX (HT-1080): −0.05674
AUC HT.Co2+ (HT-1080): 0.09509
AUC HT.CspA (HT-1080): 0.06761
AUC HT.DPQ (HT-1080): −0.005922
AUC HT.EGTA (HT-1080): 0.05184
AUC HT.Gd3+ (HT-1080): −0.004674
AUC HT.LNAME (HT-1080): −0.09982
AUC HT.Lmim (HT-1080): −0.07257
AUC HT.NAD+ (HT-1080): −0.06539
AUC HT.NMMA (HT-1080): −0.09083
HT.atoc (AUC) (HT-1080): 0.03305
HT.bCarotene (AUC) (HT-1080): 0.08558
HT.deferox (AUC) (HT-1080): 0.08912
HT.digoxin (AUC) (HT-1080): 0.0229
HT.trolox (AUC) (HT-1080): −0.04791
HT.zVAD (AUC) (HT-1080): 0.02459
